Source: US10842806B2, “Methods for treating ocular inflammatory disorders” (Massachusetts Eye and Ear Infirmary, priority 2011, dated 2020)

Legend:
splenic DCs = assay: Splenic DC co-stimulatory molecule expression in EAU mice (FACS); type: in vivo; conditions: AICAR-treated vs non-treated EAU mice; twelve days after immunization
Procedure: To investigate whether DC maturation was affected by AICAR, splenic DCs were isolated from EAU mice and analyzed for co-stimulatory molecule expression. Specifically, spleen cells from 4 to 5 EAU mice were pooled at twelve days after immunization and incubated with the following monoclonal antibodies: anti-CD11c (N418), CD40 (3/23), CD80 (16-10A1), CD86 (GL-1), I-A^b (AF6-120.1) (Biolegend). Spleen cells were gated on the basis of forward and side scatter profile and propidium iodide or DAPI exclusion. Samples of 1×10^6 cells were analyzed by LSR (Becton Dickinson, Franklin Lakes, N.J.).

[1] = tested on: adherent leukocytes in retinal vessels; assay: Leukocyte adhesion to retinal vessels (Concanavalin A lectin staining); type: in vivo, Lewis rats
Procedure: Male Lewis rats ranging from 6-8 weeks old (Charles River, Wilmington, Mass.) were used for these studies. To study the effects of AICAR pretreatment, AICAR and PBS (for placebo treatment) were delivered via intraperitoneal injection of AICAR (50 mg/kg or 100 mg/kg body weight; Sigma) diluted in 150 μl PBS or equal volume of PBS at 6 hours before and at the same time as LPS injection. Four experimental groups of rats were compared: (1) Normal: no treatment (2) AICAR: normal rats treated with AICAR 6 hours before examination; (3) LPS: EIU rats treated with PBS; (4) LPS+AICAR: EIU rats treated with AICAR. Two additional groups of rats were used to study the effects of AICAR (50 mg/kg) given either at the same time as LPS injection or at 6 hours after LPS injection. Inflammation in the posterior segment of the eye is seen in EIU with the adherence of recruited leukocytes to the retinal vascular endothelium (Koizumi et al. (2003) INVEST. OPHTHALMOL. VIS. SCI. 44:2184-2191). Leukocyte adhesion to the retinal vessels was evaluated at 24 hours after EIU induction by using the Concanavalin A (Con A) lectin staining technique (Smith et al. (1994) INVEST. OPHTHALMOL. VIS. SCI. 35:101-111). […] The flatmounts were imaged using an epifluorescence microscope (DM RXA; Leica) and the total number of Con A-stained adherent leukocytes per retina was counted.

lymph node (LN) cells = assay: Proliferation, cytokine production and transcription factor expression of LN cells from AICAR-treated EAU mice; type: in vivo, C57BL/6 (WT) mice
Procedure: To extract LN cells, draining lymph nodes from 6 to 8 mice were isolated at sixteen days after immunization and pooled. Single cell suspensions were made using a cell strainer (BD, Franklin Lakes, N.J.). CD4 T cell-enriched fractions were prepared using CD4 Microbeads (Miltenyi Biotec GmbH, Bergisch Gladbach, Germany), and purity of the suspensions was determined by staining with anti-CD4 antibody (GK1.5, Biolegend, San Diego, Calif.) and flow cytometry. All experimental samples of CD4 T cell-enriched fractions were at least 95% CD4-positive. To measure cell proliferation, LN cells were resuspended at 5×10^5 cells per 200 μl of medium in 96-well flat-bottom plates. Cells were incubated for 72 hours and proliferation during the last 12 hours was measured by using a bromodeoxyuridine (BrdU) cell proliferation assay kit (Millipore, Billerica, Mass.). Supernatant in the culture medium was collected at 48 hours and cytokine production in the supernatant was measured by ELISA using the Quantikine mouse IFN-γ, IL-4, IL-10 and IL-17 kits (R&D system, Minneapolis, Minn.). To measure the expression of T-bet and RORγt, real-time PCR was carried out as described above using the following TaqMan gene expression assays: T-bet (Mm00450960_m1) and RORγt (Mm01261022_m1). Quantitative expression data were acquired and analyzed with a Step One Plus real-time PCR system (Applied Biosystems). In order to assess the in vivo effect of AICAR on the development of IRBP-reactive T cells, LN cells from control and AICAR-treated mice were stimulated with either IRBP or a non-specific T cell stimulator, anti-CD3. Proliferative response was measured with BrdU incorporation. […] In comparison, when the cells were treated with anti-CD3, there was no difference in T cell proliferation between the AICAR treated and control mice (FIG. 8B).

[2] = tested on: endotoxin-induced uveitis (EIU); assay: Cell count and total protein concentration in aqueous humor of EIU rats; type: in vivo, Lewis rats
Procedure: Male Lewis rats ranging from 6-8 weeks old (Charles River, Wilmington, Mass.) were used for these studies. To study the effects of AICAR pretreatment, AICAR and PBS (for placebo treatment) were delivered via intraperitoneal injection of AICAR (50 mg/kg or 100 mg/kg body weight; Sigma) diluted in 150 μl PBS or equal volume of PBS at 6 hours before and at the same time as LPS injection. Four experimental groups of rats were compared: (1) Normal: no treatment (2) AICAR: normal rats treated with AICAR 6 hours before examination; (3) LPS: EIU rats treated with PBS; (4) LPS+AICAR: EIU rats treated with AICAR. Two additional groups of rats were used to study the effects of AICAR (50 mg/kg) given either at the same time as LPS injection or at 6 hours after LPS injection. Aqueous humor was collected by anterior chamber puncture with a 30-gauge needle 24 hours after LPS injection. For cell counting, 1 μl of aqueous humor was diluted with an equal amount of Trypan-blue solution, and the cells were counted with a hematocytometer under a light microscope. A separate sample of aqueous humor was centrifuged at 2500 rpm for 5 minutes at 4° C. and the total protein concentration was measured by Lowry methods using a Bio-Rad protein assay kit (Hercules, Calif.). Aqueous samples were stored on ice until used; cell counts and total protein concentrations were measured on the day of sample collection.

[3] = tested on: TNF-α, IL-6 and IFN-γ in the retina; assay: Retinal cytokine mRNA (real-time PCR) and protein (ELISA) in EAU mice; type: in vivo, C57BL/6 (WT) mice
[4] = AICAR-treated EAU mice, real-time PCR
[5] = LN cells from AICAR-treated EAU mice, ELISA
[6] = AICAR 200 mg/kg treated EAU mice vs control EAU mice

Adherent leukocytes in AICAR-only-treated rats ([1]; normal rats, AICAR only, n=6): few adherent leukocytes
Compound: NC(=O)c1ncn([C@@H]2O[C@H](CO)[C@@H](O)[C@H]2O)c1N [AICAR, 5-aminoimidazole-4-carboxamide-1-β-d-ribofuranoside]
CD40, CD80, CD86 and I-A^b expression on splenic DCs (splenic DCs): no difference
Number of Con A-stained adherent leukocytes per retina ([1]; AICAR 50 mg/kg pretreatment, 24 h after LPS, n=11, EIU rats 1163±244): 576±249 cells
RORγt mRNA expression in CD4 T cells (lymph node (LN) cells; [4]): suppressed
T-bet mRNA expression in CD4 T cells (lymph node (LN) cells; [4]): suppressed
T cell proliferation (BrdU), anti-CD3 stimulation (lymph node (LN) cells; LN cells from AICAR treated vs control mice): no difference
IFN-γ production by LN cells (lymph node (LN) cells; [5]): significantly suppressed
IL-10 production by LN cells (lymph node (LN) cells; [5]): significantly suppressed
IL-17 production by LN cells (lymph node (LN) cells; [5]): significantly suppressed
Antigen-specific T cell proliferation (BrdU), IRBP stimulation (lymph node (LN) cells; LN cells from AICAR-treated vs untreated EAU mice, dose-dependent manner): suppressed
Total protein concentration in aqueous humor ([2]; AICAR 50 mg/kg pretreatment, 24 h after LPS, LPS only 18.3): 7.9 mg/mL
Number of infiltrating cells in aqueous humor ([2]; AICAR 50 mg/kg pretreatment, 24 h after LPS, n=11, LPS only 22.0×10^5): 1.4×10^5 cells/ml
Cell infiltration and protein levels in aqueous humor of AICAR-only-treated rats ([2]; normal rats, AICAR only, n=6): did not show any significant infiltration of cells nor a significant increase in protein levels
IFN-γ mRNA in retina [3, 6]: significantly reduced
IL-6 mRNA in retina [3, 6]: significantly reduced
TNF-α mRNA in retina [3, 6]: significantly reduced
IL-6 protein level in retina ([3]; AICAR 200 mg/kg treated EAU mice, 21 days after immunization, ELISA): suppressed
